Assay [1] relates to fluconazole-resistant C. auris isolates. As to the kind of experiment: microbe, parasite or virus in culture. The conditions noted are these: Candidozyma auris, EUCAST broth microdilution, RPMI 1640 with 2% glucose. For orientation: In broth dilution the organism is exposed to a series of concentrations in liquid medium.
The test system of assay [2] is C. auris isolates 728157, CAB-1, CAB-2. Nature of the assay: Time-kill experiments (CFU counts), peptides combined with fluconazole. Type of assay: cell-based, Candida auris. To be noted: for interaction with fluconazole in time-kill: fluconazole 128 mg/L with 0.5X and 1X MIC of peptide, interpreted by White et al.; for log difference compared to single administration, time-kill: C. auris CAB-1.

Assay [3] relates to fluconazole-resistant C. auris isolates. To be noted: for MIC: EUCAST broth microdilution, RPMI 1640 with 2% glucose; for MIC values: the six C. auris isolates.
The subject of another assay is C. auris. As to the kind of experiment: Stability of compounds: MIC after pre-incubation of the peptides. To be noted: peptides previously incubated for 24 and 48 hours at 37°C; no changes in MIC values. Type of assay: cell-based, Candida auris. As to the method:
Determination of MICs. […] The media used for this assay was RPMI 1640 with 2% of glucose and the concentration of antifungal and peptides tested ranged from 128 to 0.25 mg/l.
Stability of compounds The peptides were incubated at 37°C for 24 and 48 hours. They were then used to perform MIC determination as previously described.

In assay [4] the test system is C. auris isolates 728157, CAB-1, CAB-2. As to the kind of experiment: Growth curves (OD450 nm every hour for 24 h). Type of assay: cell-based, Candida auris. To be noted: for growth: growth curve 24 h. On the procedure: Growth Curves. The action of the peptides was assessed by growth curve measuring OD450 nm every hour for 24 h using peptides at different concentrations (0.5X, 1X, 2X MIC). […] Untreated isolates were used as control. All experiments were replicated at least three times.

[5] abbreviates: isolate 728157 (clade I, ERG11 K143R).
Where [6] appears, read: isolate CAB-1 (clade I, ERG11 Y132F).
Setting [7] is: isolate CAB-2 (clade I, ERG11 Y132F).
The mark [8] stands for this setting: isolate CAB-3 (clade I, ERG11 Y132F).
Setting [9] is: isolate CAB-4 (clade I, ERG11 Y132F).
[10] abbreviates: isolate CAB-5 (clade I, ERG11 Y132F).
The mark [11] stands for this setting: fluconazole combined with 0.5X MIC of peptide, after 12 hours.
Setting [12] is: C. auris CAB-2, fluconazole combined with 0.5X MIC of peptide, after 12 hours.
The mark [13] stands for this setting: C. auris 728157, all the concentrations (0.5X, 1X, 2X MIC).
Setting [14] is: C. auris 728157, peptide at 0.5X MIC.
[15] abbreviates: C. auris 728157, peptide at 1X and 2X MIC.
[16] abbreviates: C. auris CAB-1, peptide at 1X and 2X MIC.
Setting [17] is: C. auris CAB-2, peptide at 1X MIC.
Where [18] appears, read: C. auris CAB-2, peptide at 2X MIC.

≈ marks a conversion by molar mass, not a printed value. Read-outs that look alike come from different tables or passages of the source. Non-standard residues stand in square brackets, D forms with d. Residues, ends and D or L forms follow the SMILES beside them. *: point of attachment. Myristoyl = CCCCCCCCCCCCCC(=O)*; Nle = CCCC[C@H](N)C(=O)O

As for `C[C@@H]1[C@H](O)[C@@H](C)/C=C/C=C/C=C/C=C/C=C/C=C/C=C/[C@H](O[C@@H]2O[C@H](C)[C@@H](O)[C@H](N)[C@@H]2O)C[C@@H]2O[C@](O)(C[C@@H](O)C[C@@H](O)[C@H](O)CC[C@@H](O)C[C@@H](O)CC(=O)O[C@H]1C)C[C@H](O)[C@H]2C(=O)O` [AMB, amphotericin], the MIC in assay [1] (setting [5]) worked out at 0.5 mg/L (≈ 0.541 µM); in assay [1] (setting [6]), 1 mg/L (≈ 1.08 µM); in assay [1] (setting [7]), 1 mg/L (≈ 1.08 µM); in assay [1] (setting [8]), 1 mg/L (≈ 1.08 µM); in assay [1] (setting [9]), 1 mg/L (≈ 1.08 µM); in assay [1] (setting [10]), 1 mg/L (≈ 1.08 µM).

For the compound `OC(Cn1cncn1)(Cn1cncn1)c1ccc(F)cc1F` [FLU, fluconazole], the MIC in assay [1] (setting [5]) is greater than 128 mg/L; in assay [1] (setting [6]) it was 64 mg/L (≈ 209 µM); in assay [1] (setting [10]) it was 64 mg/L (≈ 209 µM).

In the case of `CCCCCCCCCCCCCC(=O)N[C@@H](CCCC)C(=O)N[C@@H](CCCNC(=N)N)C(=O)N[C@@H](CCCNC(=N)N)C(N)=O` [NeI, C14-NleRR-NH2] (Myristoyl-[Nle]-Arg-Arg-NH2), in assay [2] (C. auris 728157), the “interaction with fluconazole in time-kill” value was “synergistic effect”. In addition, the “log difference, time-kill” value in assay [2] (C. auris 728157, fluconazole (128 mg/L) in combination with 0.5X and 1X MIC of peptide, at 32 hours) is listed as 3.10 log; in assay [2] (C. auris 728157, fluconazole (128 mg/L) in combination with 0.5X and 1X MIC of peptide, at 48 hours), 3.53 log; in assay [2] (setting [12]), 1.19 log. Moreover, the “log difference compared to single administration, time-kill” value in assay [2] (setting [11]) came to 2.19 log. The MIC in assay [3] (setting [5]), in assay [3] (setting [6]), in assay [3] (setting [7]), in assay [3] (setting [8]), in assay [3] (setting [9]) and in assay [3] (setting [10]) was 8 mg/L (≈ 12.3 µM) in each case. The MIC values in assay [3] came to 8 mg/L; in assay [3] (8 mg/L expressed in µM), 9 µM. The “MIC after pre-incubation of the peptide (stability)” value against C. auris was 8 mg/L. Besides, the “hours of treatment after which P <0.05 compared to control (growth curve)” value in assay [4] (setting [13]) came to 8 h; in assay [4] (C. auris CAB-1, 1X and 2X MIC concentrations) it was 8 h; in assay [4] (C. auris CAB-2, 1X and 2X MIC concentrations), 7 h. Also, the “delay of the start of growth compared to the control” value is 16 h in assay [4] (setting [14]) and 14 h in assay [4] (setting [17]). Further, the growth result in assay [4] (setting [15]), in assay [4] (setting [16]) and in assay [4] (setting [18]) was “completely inhibited” in each case.

Turning to `CCCCCCCCCCCCCC(=O)N[C@@H](Cc1c[nH]c2ccccc12)C(=O)N[C@@H](CCCNC(=N)N)C(=O)N[C@@H](CCCNC(=N)N)C(N)=O` [WR, C14-WRR-NH2] (Myristoyl-Trp-Arg-Arg-NH2), the “interaction with fluconazole in time-kill” value in assay [2] (C. auris 728157) is “additive effect”. Moreover, the “log difference compared to single administration, time-kill” value in assay [2] (setting [11]) was found to be 2.96 log. In addition, in assay [2] (setting [12]), the “log difference, time-kill” value came out at 1.69 log. For the same compound, the MIC in assay [3] (setting [5]), in assay [3] (setting [6]), in assay [3] (setting [7]), in assay [3] (setting [8]), in assay [3] (setting [9]) and in assay [3] (setting [10]) was 8 mg/L (≈ 11 µM) throughout. Moreover, the MIC values in assay [3] came to 8 mg/L; in assay [3] (8 mg/L expressed in µM) it was 8.4 µM. Besides, in the assay on C. auris, the “MIC after pre-incubation of the peptide (stability)” value is given as 8 mg/L. The “hours of treatment after which P <0.05 compared to control (growth curve)” value worked out at 9 h in assay [4] (setting [13]); 9 h in assay [4] (C. auris CAB-1, all the concentrations (0.5X, 1X, 2X MIC)); 8 h in assay [4] (C. auris CAB-2, all the concentrations (0.5X, 1X, 2X MIC)). The “delay of the start of growth compared to the control” value came out at 22 h in assay [4] (setting [14]) and 16 h in assay [4] (setting [17]). The growth result in assay [4] (setting [15]), in assay [4] (setting [16]) and in assay [4] (setting [18]) was “completely inhibited” throughout. Further, the “growth after 24 hours compared to the control” value in assay [4] (peptide at 0.5X MIC, ANOVA, P <0.05) was “statistically significant reduction of growth”.

Regarding anidulafungin [reference compound], the MIC in assay [3] (setting [5]) is 0.25 mg/L; in assay [3] (setting [6]), 0.5 mg/L; in assay [3] (setting [7]), 0.25 mg/L; in assay [3] (setting [8]) it was 0.25 mg/L; in assay [3] (setting [9]), 0.25 mg/L; in assay [3] (setting [10]) it was 0.25 mg/L.
